In paper PMC10542788, “Discovery of a cystathionine γ-lyase (CSE) selective inhibitor targeting active-site pyridoxal 5′-phosphate (PLP) via Schiff base formation” (Scientific Reports, 2023):

Assays:
Type in all cases: biochemical
rat CSE (rCSE) = target: T1, rat CSE (rCSE) (Rattus norvegicus, UniProt P18757); experiment: rCSE inhibition, H2S detection by fluorescence of HSip-1
T1 construct: His-tag (C); made in house; host or cells: E. coli BL21
Method: The developed assay system employs a plate reader to detect H2S production by CSE as a fluorescence signal in a solution containing 30 μg/mL rat CSE (rCSE), 1 μM HSip-1, 100 μM pyridoxal-5′-phosphate (PLP) and 1.5 mM cysteine (a substrate) in a 384-well plate format (Fig. 1b). A large amount of rCSE was expressed in E. coli and purified on a Ni Sepharose 6 Fast Flow module. We then performed screening of a chemical library consisting of 161,600 compounds (from the Drug Discovery Initiative, the University of Tokyo) for CSE inhibitors (Fig. 1c). […] Then, a confirmation test for repeatability (n = 4) of the 160 compounds selected in the 1st screening was performed to exclude false-positives. In this step, we also excluded cysteine-reactive compounds by changing the addition order of the rCSE and cysteine (substrate) solutions. In other words, in the 1st screening, the enzyme solution was firstly added to each library compound, while in the confirmation test for repeatability of the hit compounds in the 1st screening, we firstly added the cysteine solution to each compound. This enabled us to identify and exclude cysteine-reactive compounds, based on their reaction with the added cysteine. These procedures left 80 compounds showing both more than 40% inhibition at 10 µM and similar % inhibition of rCSE irrespective of the addition order of the rCSE and cysteine solutions. In the 2nd screening, we examined the reactivity of these 80 compounds with H2S using an H2S donor[17] to exclude H2S-reactive compounds. […] In this assay, we selected 13 compounds which were non-reactive to H2S, but one was relatively unstable and two of them were the same compound, so that 11 compounds were finally selected. These compounds included some hydrazine and hydrazide derivatives, so we performed titration assay of the selected 11 compounds together with 9 commercially available hydrazine and hydrazide compounds (Supplementary Fig. S3) and calculated the half-maximal (50%) inhibitory concentration (IC50) of each compound.
The fluorescence intensity of HSip-1 was measured (λex = 490 nm, λem = 510 nm) with a microplate reader (EnVision, Perkin Elmer).
10 µL of 1.5 mM cysteine solution in 30 mM HEPES (pH 7.4) was added to 10 µL of solution containing 30 µg/mL rCSE, 100 µM PLP, 1 µM HSip-1, 0.005% tween 20 and the test compound (0.5% DMSO as a cosolvent). The mixture was incubated at 25 °C for 3 h and the fluorescence intensity of HSip-1 was measured with a microplate reader.

human CSE (hCSE) = target: T2, human CSE (hCSE) (Homo sapiens, UniProt P32929); experiment: hCSE inhibition in lysate of HEK293T cells expressing hCSE, HSip-1; conditions: mean ± S.E., read-out: IC50, inhibitory activity towards hCSE in cell lysate
T2 construct: expressed in transfected cells; host or cells: HEK293T
T2 sequence (P32929 whole entry): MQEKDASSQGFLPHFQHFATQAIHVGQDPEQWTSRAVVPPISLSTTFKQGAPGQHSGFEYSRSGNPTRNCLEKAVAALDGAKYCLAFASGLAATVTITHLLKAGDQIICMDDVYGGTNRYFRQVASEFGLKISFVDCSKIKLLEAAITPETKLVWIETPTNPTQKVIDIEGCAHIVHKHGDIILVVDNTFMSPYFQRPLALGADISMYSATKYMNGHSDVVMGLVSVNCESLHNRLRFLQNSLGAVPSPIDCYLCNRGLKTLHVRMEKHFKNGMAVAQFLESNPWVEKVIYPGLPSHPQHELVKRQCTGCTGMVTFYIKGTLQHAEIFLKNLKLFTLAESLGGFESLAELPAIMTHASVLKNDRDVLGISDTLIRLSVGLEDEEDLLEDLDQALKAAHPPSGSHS
Method: We first examined whether or not 1 inhibits human CSE (hCSE) in cell lysates. We prepared the lysate of HEK293T cells expressing hCSE, and added 1.5 mM cysteine, 100 μM PLP, 1 μM HSip-1 and various concentrations of 1 to it. Based on fluorescence measurements, the IC50 value of 1 for hCSE was calculated to be 26 ± 2 µM, which is similar to the value for rCSE measured in HEPES buffer (Fig. 4b). […] We also confirmed that all amino acid residues of rCSE involved in the recognition of 1 are conserved in hCSE (Supplementary Fig. S10).
10 µL of 1.5 mM cysteine solution in 30 mM HEPES (pH 7.4) was added to 10 µL of solution containing 300 µg/mL cell lysate of HEK293T cells expressing hCSE, 100 µM PLP, 1 µM HSip-1, 0.005% tween 20 and various concentrations of the inhibitor (0.5% DMSO as a cosolvent). The mixture was incubated at 37 °C for 3 h and the fluorescence intensity of HSip-1 was measured with a microplate reader.

MGL = MGL inhibition, HSip-1 fluorescence; conditions: 30 µM
Method: The selectivity of 1, 2 and PAG for rCSE over other RSS-producing enzymes, CBS and 3MST, was examined (Fig. 4a). CBS is a PLP-dependent enzyme, like CSE, and produces H2S from cysteine and homocysteine as substrates. 3MST is also an H2S-producing enzyme, but is not PLP-dependent and uses 3-mercaptopyruvate as a substrate. The amount of H2S produced by CBS or 3MST was evaluated in the presence or absence of the inhibitor by measuring the fluorescence intensity of HSip-1. […] We also examined the inhibitory activity towards two other PLP-dependent enzymes, MGL and ALT. MGL metabolizes L-methionine to α-ketobutyric acid, methanethiol and ammonia, and is inhibited by PAG[14]. MGL also produces H2S from homocysteine as a substrate, and this activity of MGL can be measured by fluorescence detection with HSip-1. […] The enzymatic activity of ALT can be assessed by means of a coupled assay using the reduction of pyruvate to L-lactate with lactate dehydrogenase and NADH and measuring the change in absorption of NADH.
10 µL of 200 µM homocysteine in 30 mM HEPES (pH 7.4) was added to 10 µL of a solution containing 20 µg/mL MGL (Sigma-Aldrich), 100 µM PLP, 1 µM HSip-1, 0.005% tween 20 and various concentrations of the inhibitor (0.5% DMSO as a cosolvent). The mixture was incubated at 25 °C for 100 min and the fluorescence intensity of HSip-1 was measured with a microplate reader.

T1 sequence (P18757 whole entry): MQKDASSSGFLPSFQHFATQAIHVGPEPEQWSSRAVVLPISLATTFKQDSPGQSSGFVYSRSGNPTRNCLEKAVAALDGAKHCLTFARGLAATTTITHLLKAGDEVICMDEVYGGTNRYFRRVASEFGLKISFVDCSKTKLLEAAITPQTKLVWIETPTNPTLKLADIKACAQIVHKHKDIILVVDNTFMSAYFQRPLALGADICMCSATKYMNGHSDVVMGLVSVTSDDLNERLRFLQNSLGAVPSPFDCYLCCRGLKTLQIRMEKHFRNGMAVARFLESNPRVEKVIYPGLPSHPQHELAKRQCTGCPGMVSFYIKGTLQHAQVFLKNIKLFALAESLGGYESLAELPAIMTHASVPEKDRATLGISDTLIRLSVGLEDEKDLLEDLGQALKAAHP

IC50 (rat CSE (rCSE); fluorescence assay with HSip-1, 1.5 mM cysteine, 100 μM PLP, mean ± S.E., read-out: IC50, inhibitory activity towards rCSE): 13 ± 1 µM
IC50 (human CSE (hCSE)): 26 ± 2 µM
Compound: NNC(=O)C(N)=O [Compound 1, oxamic hydrazide]
selectivity for CSE among the compounds examined (1, 2, PAG) (rat CSE (rCSE); versus CBS, 3MST, MGL and ALT): highest selectivity for CSE
inhibitory activity towards MGL / selectivity for CSE over MGL (MGL): high selectivity for CSE over MGL and ALT
